Experimental data taken from patent US9187455B2, “Substituted pyridazines as PDE10A inhibitors” (Hoffmann-La Roche Inc., priority 2009, dated 2015).

Target: T1, PDE10A2 (Homo sapiens, UniProt Q9Y233)
T1 construct: residues serine 449 to aspartate 789; His6 (H6) with Gateway linker and thrombin cleavage site (N, cleaved yes); made in house; host or cells: E. coli BL21(DE3) pLysS
Test: PDE10A2 Scintillation Proximity Assay (SPA), [3H]-cGMP hydrolysis
Type: biochemical
Conditions: catalytic domain of human PDE10A2 (S449-D789), 0.25 nM enzyme, 50 nM cGMP + 50 nM [3H]-cGMP, 30 minutes at room temperature; read-out: PDE10A2 inhibition IC50
Experimental: The following tests were carried out in order to determine the activity of the compounds of the present invention. PDE10 activity of the compounds of the present invention is determined using a Scintillation Proximity Assay (SPA)-based method similar to the one previously described (Fawcett, L. et al., ProcNatl Acad Sci USA (2000) 97(7):3702-3707).
PDE10A1 and PDE10A2 are two splice variants of PDE10A. There are these 2 splice variants known, which differ in the N-terminal part of the protein. The catalytic domains of PDE10A1 and PDE10A2 are identical. The assay for PDE10A2 described below is therefore also representative for PDE10A1 and also for PDE10A in general.
The PDE10A2 assay was performed in a two step procedure in 96-well micro titer plates. The reaction mixture of 80 μl contained 20 mM HEPES/10 mM MgCl2/[…] (pH 7.5), 50 nM cGMP (Sigma) and 50 nM [^3H]-cGMP (GE Healthcare), 0.25 nM PDE10A2 with or without a specific test compound. A range of concentrations of the potential inhibitor was used to generate data for calculating the concentration of inhibitor resulting in 50% of the effect (e.g. IC50, the concentration of the competitor inhibiting PDE10A2 activity 50%). Non-specific activity was tested without the enzyme. The reaction was initiated by addition of the substrate solution (cGMP and [^3H]-cGMP) and allowed to progress for 30 minutes at room temperature. The reaction was terminated by transferring 50 μl of the reaction mixture into an OptiPlate (Perkin Elmer) containing 25 μl of YSi-SPA scintillation beads (GE Healthcare) in 18 mM zinc sulphate solution (stop reagent). After 1 h under shaking, the plate was centrifuged one minute at 1000 rpm to allow beads to settle. Afterwards, radioactive counts were measured on a Perkin Elmer TopCount Scintillation plate reader.
The catalytic domain of human PDE10A2, residues serine 449 to aspartate 789, was amplified by PCR using cDNA (Origene) and the oligonucleotides 5′-GGGGACAAGTTTGT […]-3′ (with AttB1 recombination site in bold and thrombin protease cleavage site in italics) and 5′-[…]-3′ (with AttB2 recombination site in bold) which conferred Gateway recombination sites. The PCR product was used in a BP recombination reaction with pDONR221 to generate pENTR Thm-PDE10A2(S449-D789) which was DNA sequence verified and then used in an LR recombination reaction with a Gateway modified version of pET11a. The resulting expression vector, placT7.2H6-(gwl)-Thm-PDE10A2(S449-D789) was DNA sequence confirmed and transformed into E. coli strain BL21(DE3) pLysS and recombinant protein was produced in TB medium at 20° C. by induction to a final IPTG concentration of 0.5 mM at an optical density of 1.0 at 600 nm for 20 hours. About 30% of the protein was in the soluble fraction of the cell homogenate. The protein was purified using sequential chromatography on Ni-NTA and HiTrapQ/HiTrapS. After thrombin digest at room temperature a HiTrapChelating/HiTrap Benzamindin chromatography removed impurities, uncleaved protein and thrombin. Final purification of PDE10A2(S449-D789) was performed on a Superdex 75 size exclusion chromatography equilibrated with 25 mM HEPES pH 8.4, 0.15 M NaCl. The yield of pure protein was 2 mg/liter of culture volume is relatively low. The purity of the protein was >95%, monomeric and monodisperse as shown by SDS-PAGE, HPLC and analytical ultracentrifugation.

T1 sequence (Q9Y233 715-1055): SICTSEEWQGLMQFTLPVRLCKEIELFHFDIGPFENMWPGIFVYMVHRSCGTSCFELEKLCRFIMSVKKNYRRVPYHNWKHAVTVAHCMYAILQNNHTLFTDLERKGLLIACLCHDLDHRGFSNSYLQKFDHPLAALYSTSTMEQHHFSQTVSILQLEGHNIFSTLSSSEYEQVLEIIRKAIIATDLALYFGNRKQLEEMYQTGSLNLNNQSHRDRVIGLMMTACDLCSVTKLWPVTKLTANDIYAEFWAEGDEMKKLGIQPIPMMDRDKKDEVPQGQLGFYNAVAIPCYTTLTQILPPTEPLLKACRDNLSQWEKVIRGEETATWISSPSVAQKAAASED

SMILES	IC50
Cc1cncc(-n2ccc(=O)c(-c3ccnn3-c3ccccc3F)n2)c1 [Example 90, 3-[2-(2-Fluoro-phenyl)-2H-pyrazol-3-yl]-1-(5-methyl-pyridin-3-yl)-1H-pyridazin-4-one]	90 nM
Cc1cc(-n2ccc(=O)c(-c3ccnn3-c3ccc4c(c3)OCCO4)n2)ccn1 [Example 38, 3-[2-(2,3-Dihydro-benzo[1,4]dioxin-6-yl)-2H-pyrazol-3-yl]-1-(2-methyl-pyridin-4-yl)-1H-pyridazin-4-one]	437 nM
O=c1ccn(-c2ccnc(Cl)c2)nc1-c1ccnn1-c1ccnc(Cl)c1 [Example 57, 1-(2-Chloro-pyridin-4-yl)-3-[2-(2-chloro-pyridin-4-yl)-2H-pyrazol-3-yl]-1H-pyridazin-4-one]	1540 nM
O=c1ccn(-c2ccnc(Cl)c2)nc1-c1ccnn1-c1ccnc2ccccc12 [Example 54, 1-(2-Chloro-pyridin-4-yl)-3-(2-quinolin-4-yl-2H-pyrazol-3-yl)-1H-pyridazin-4-one]	66 nM
O=c1ccn(-c2ccncc2)nc1-c1ccnn1-c1cccc(F)c1F [Example 29, 3-[2-(2,3-Difluoro-phenyl)-2H-pyrazol-3-yl]-1-pyridin-4-yl-1H-pyridazin-4-one]	219 nM
O=c1ccn(-c2cncc(Cl)c2)nc1-c1ccnn1-c1ccccc1F [Example 64, 1-(5-Chloro-pyridin-3-yl)-3-[2-(2-fluoro-phenyl)-2H-pyrazol-3-yl]-1H-pyridazin-4-one]	148 nM
O=c1ccn(-c2ccncc2)nc1-c1ccnn1-c1ccnc2cc(Cl)ccc12 [Example 91, 3-[2-(7-Chloro-quinolin-4-yl)-2H-pyrazol-3-yl]-1-pyridin-4-yl-1H-pyridazin-4-one]	32 nM
O=c1ccn(-c2ccncc2)nc1-c1ccnn1-c1ccnc2ccccc12 [Example 20, 1-Pyridin-4-yl-3-(2-quinolin-4-yl-2H-pyrazol-3-yl)-1H-pyridazin-4-one]	9 nM
O=c1ccn(-c2cncc(C(F)(F)F)c2)nc1-c1ccnn1-c1cccc(Cl)c1 [Example 67, 3-[2-(3-Chloro-phenyl)-2H-pyrazol-3-yl]-1-(5-trifluoromethyl-pyridin-3-yl)-1H-pyridazin-4-one]	56 nM
O=c1ccn(-c2ccncc2)nc1-c1ccnn1-c1cccc2cccnc12 [Example 26, 1-Pyridin-4-yl-3-(2-quinolin-8-yl-2H-pyrazol-3-yl)-1H-pyridazin-4-one]	806 nM
Cc1cc(-n2nccc2-c2nn(-c3ccc(Cl)nc3)ccc2=O)ccn1 [Example 88, 1-(6-Chloro-pyridin-3-yl)-3-[2-(2-methyl-pyridin-4-yl)-2H-pyrazol-3-yl]-1H-pyridazin-4-one]	1130 nM
O=c1ccn(-c2cncc(OC(F)F)c2)nc1-c1ccnn1-c1cccc2ncccc12 [Example 89, 1-(5-Difluoromethoxy-pyridin-3-yl)-3-(2-quinolin-5-yl-2H-pyrazol-3-yl)-1H-pyridazin-4-one]	46 nM
Cc1cncc(-n2ccc(=O)c(-c3ccnn3-c3cccc(F)c3)n2)c1 [Example 37, 3-[2-(3-Fluoro-phenyl)-2H-pyrazol-3-yl]-1-(5-methyl-pyridin-3-yl)-1H-pyridazin-4-one]	149 nM
O=c1ccn(-c2ccnc(Cl)c2)nc1-c1ccnn1-c1ccnc2ccc(Cl)cc12 [Example 62, 1-(2-Chloro-pyridin-4-yl)-3-[2-(6-chloro-quinolin-4-yl)-2H-pyrazol-3-yl]-1H-pyridazin-4-one]	154 nM
O=c1ccn(-c2ccncc2)nc1-c1ccnn1-c1ccnc2ccc(Cl)cc12 [Example 72, 3-[2-(6-Chloro-quinolin-4-yl)-2H-pyrazol-3-yl]-1-pyridin-4-yl-1H-pyridazin-4-one]	78 nM
O=c1ccn(-c2ccncc2)nc1-c1ccnn1-c1ccncc1 [Example 31, 1-Pyridin-4-yl-3-(2-pyridin-4-yl-2H-pyrazol-3-yl)-1H-pyridazin-4-one]	811 nM
